Source: patent US6783949B1, “Processes for determining whether a test substance contains lipases or lipase inhibitors” (Aventis Pharma Deutschland GmbH, priority 1999, dated 2004)

What was measured:
LPL from rat adipocytes = biological target: T1, LPL from rat adipocytes (Rattus norvegicus, UniProt Q06000); assay: Cleavage of NAG by LPL; type: biochemical; settings: for Increase in the absorption at 481 nm: 60 min, NAG 0.05 mg/ml
T1 construct: 75 μg of partially purified LPL from rat adipocytes; from tissue; host or cells: rat adipocytes
T1 sequence (Q06000 28-474): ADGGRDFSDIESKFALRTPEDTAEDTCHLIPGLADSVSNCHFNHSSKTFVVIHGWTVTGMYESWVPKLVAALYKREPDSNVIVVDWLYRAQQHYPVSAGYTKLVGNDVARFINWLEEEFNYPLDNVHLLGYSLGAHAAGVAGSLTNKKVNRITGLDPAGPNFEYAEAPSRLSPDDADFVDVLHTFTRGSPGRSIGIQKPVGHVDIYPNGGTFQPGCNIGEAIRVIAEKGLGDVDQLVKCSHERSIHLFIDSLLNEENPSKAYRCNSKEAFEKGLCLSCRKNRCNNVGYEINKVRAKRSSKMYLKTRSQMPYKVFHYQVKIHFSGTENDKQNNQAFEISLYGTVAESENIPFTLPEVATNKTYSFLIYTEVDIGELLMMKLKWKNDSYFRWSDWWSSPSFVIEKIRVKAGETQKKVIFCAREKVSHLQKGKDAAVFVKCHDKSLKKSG

bacterial lipase = assay: Cleavage of NAG by bacterial lipase; type: biochemical; settings: for Increase in the absorption at 481 nm: Bacterial lipase, 60 min, NAG 0.05 mg/ml

`O=C(CCCCCCCCCCCNc1ccc([N+](=O)[O-])c2nonc12)OCC(O)CO` (stereo not shown) [Compound (3)] was tested. Which “Activity relative to HSL” value (LPL from rat adipocytes; conditions optimized for HSL) did it give?
The value was roughly 70%.

What about the “Increase in the absorption at 481 nm” value (LPL from rat adipocytes; enzyme 10 arb. units) of the same molecule?
The value was 105 ± 14 arb. units.

What about the “Increase in the absorption at 481 nm” value (LPL from rat adipocytes; enzyme 20 arb. units) of the same molecule?
The value was 187 ± 17 arb. units.

What about the “Increase in the absorption at 481 nm” value (LPL from rat adipocytes; enzyme 50 arb. units) of the same molecule?
The value was 489 ± 31 arb. units.

And the “Increase in the absorption at 481 nm” value (LPL from rat adipocytes; enzyme 75 arb. units)?
Its value is 773 ± 56 arb. units.

And the “Increase in the absorption at 481 nm” value (LPL from rat adipocytes; enzyme 100 arb. units)?
The value was 948 ± 72 arb. units.

And the “Increase in the absorption at 481 nm” value (LPL from rat adipocytes; enzyme 150 arb. units)?
Its value is 1487 ± 132 arb. units.

And the “Increase in the absorption at 481 nm” value (LPL from rat adipocytes; enzyme 200 arb. units)?
The value was 1952 ± 173 arb. units.

What about the “Increase in the absorption at 481 nm” value (LPL from rat adipocytes; enzyme 250 arb. units) of the same molecule?
The value was 2638 ± 213 arb. units.

What about the “Increase in the absorption at 481 nm” value (LPL from rat adipocytes; enzyme 300 arb. units) of the same molecule?
The value was 2945 ± 250 arb. units.

What about the “Increase in the absorption at 481 nm” value (LPL from rat adipocytes; enzyme 400 arb. units) of the same molecule?
The value was 3512 ± 288 arb. units.

What about the “Increase in the absorption at 481 nm” value (bacterial lipase; enzyme 10 arb. units) of the same molecule?
The value was 36 ± 7 arb. units.

And the “Increase in the absorption at 481 nm” value (bacterial lipase; enzyme 20 arb. units)?
The value was 81 ± 10 arb. units.

And the “Increase in the absorption at 481 nm” value (bacterial lipase; enzyme 50 arb. units)?
The value was 148 ± 18 arb. units.

What about the “Increase in the absorption at 481 nm” value (bacterial lipase; enzyme 75 arb. units) of the same molecule?
Its value is 238 ± 29 arb. units.

What about the “Increase in the absorption at 481 nm” value (bacterial lipase; enzyme 100 arb. units) of the same molecule?
Its value is 341 ± 39 arb. units.

And the “Increase in the absorption at 481 nm” value (bacterial lipase; enzyme 150 arb. units)?
The value was 467 ± 57 arb. units.

And the “Increase in the absorption at 481 nm” value (bacterial lipase; enzyme 200 arb. units)?
The value was 748 ± 70 arb. units.

What about the “Increase in the absorption at 481 nm” value (bacterial lipase; enzyme 250 arb. units) of the same molecule?
The value was 904 ± 83 arb. units.

What about the “Increase in the absorption at 481 nm” value (bacterial lipase; enzyme 300 arb. units) of the same molecule?
Its value is 1056 ± 143 arb. units.

What about the “Increase in the absorption at 481 nm” value (bacterial lipase; enzyme 400 arb. units) of the same molecule?
Its value is 1270 ± 187 arb. units.

And the “Activity relative to HSL” value (bacterial lipase; bacterial lipase, conditions optimized for HSL)?
Its value is 25%.
